Test system: HCT116 cells
Assay: Cell viability assay (CellTiter-Glo, 72 hours) in HCT116 human colorectal cancer cells
Format: cell-based
Settings: Homo sapiens, HCT-116; Table 1; HCT116, 72 hours; read-out: Activity
Outline: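 2,000 cells/well adhered overnight, then compound added by digital dispenser with DMSO normalized to 0.5%. Viability read after 72 h at 37 °C by ATP-based CellTiter-Glo luminescence. IC50 from ten-point curves baseline-corrected to vehicle, five-parameter asymmetric least-squares fit.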

| IC50 | Structure (SMILES) |
| --- | --- |
| < 500 nM | CC#CCN1C(=O)c2ccccc2Sc2cc(NC(=O)N3CCC3)ccc21 [Table 1: —CH2CCMe; azetidin-1-yl; CH; CH, N-(10-(But-2-yn-1-yl)-11-oxo-10,11-dihydrodibenzo[b,f][1,4]thiazepin-7-yl) azetidine-1-carboxamide] |

Same assay, conditions: Homo sapiens, HCT-116; Table 5; HCT116, 72 hours; read-out: Activity

| IC50 | Structure (SMILES) |
| --- | --- |
| < 500 nM | CC#CCN1C(=O)c2ccccc2Cc2cc(Nc3ncnc(C#N)c3C)ccc21 [6-((5-(But-2-yn-1-yl)-6-oxo-6,11-dihydro-5H-dibenzo[b,e]azepin-2-yl)amino)-5-methylpyrimidine-4-carbonitrile] |
| < 500 nM | CC#CCN1C(=O)c2ccccc2Sc2cc(Nc3nnccc3C)ccc21 [10-(But-2-yn-1-yl)-7-((4-methylpyridazin-3-yl)amino)dibenzo[b,f][1,4]thiazepin-11 (10H)-one] |
| < 500 nM | CC#CCN1C(=O)c2ccccc2Sc2cc(Nc3cc(C#N)ncn3)ccc21 [6-((10-(But-2-yn-1-yl)-11-oxo-10,11-dihydrodibenzo[b,f][1,4]thiazepin-7-yl)amino)pyrimidine-4-carbonitrile] |
| < 500 nM | CC#CCN1C(=O)c2ccccc2Sc2cc(Nc3ncc(C)cc3F)ccc21 [10-(But-2-yn-1-yl)-7-((3-fluoro-5-methylpyridin-2-yl)amino)dibenzo[b,f][1,4]thiazepin-11 (10H)-one] |
| < 500 nM | CCC/C=C/CN1C(=O)c2ccccc2Sc2cc(Nc3nccnc3C)ccc21 [(E)-10-(Hex-2-en-1-yl)-7-((3-methylpyrazin-2-yl)amino)dibenzo[b,f][1,4]thiazepin-11 (10H)-one] |
| < 500 nM | CCC/C=C/CN1C(=O)c2ccccc2Sc2cc(Nc3ncccc3C#N)ccc21 [(E)-2-((10-(Hex-2-en-1-yl)-11-oxo-10,11-dihydrodibenzo[b,f][1,4]thiazepin-7-yl)amino) nicotinonitrile] |

Same assay, conditions: Homo sapiens, HCT-116; Table 6; HCT116, 72 hours; read-out: Activity

| IC50 | Structure (SMILES) |
| --- | --- |
| < 500 nM | CC#CCN1C(=O)c2ccccc2Sc2cc(NC3CCOC3)ccc21 (centres unmarked) [10-(But-2-yn-1-yl)-7-((tetrahydrofuran-3-yl)amino)dibenzo[b,f][1,4]thiazepin-11 (10H)-one] |
| < 500 nM | CC#CCN1C(=O)c2ccccc2Sc2cc(NC3COCC3C)cnc21 (centres unmarked) [11-(But-2-yn-1-yl)-3-((4-methyltetrahydrofuran-3-yl)amino)benzo[f]pyrido[3,2-b][1,4]thiazepin-10(11H)-one] |

Same assay, conditions: Homo sapiens, HCT-116; Table 9; HCT116, 72 hours; read-out: Activity

| IC50 | Structure (SMILES) |
| --- | --- |
| < 500 nM | COc1ccc(C(=O)Nc2ccc3c(c2)Cc2ccccc2C(=O)N3CC#CC(F)(F)F)cc1 [Table 9: —CH2CCCF3; 4-MeOPh; CH2, 4-Methoxy-N-(6-oxo-5-(4,4,4-trifluorobut-2-yn-1-yl)-6, 11-dihydro-5H-dibenzo[b,e]azepin-2-yl)benzamide] |
| < 500 nM | CC#CCN1C(=O)c2ccccc2C(C)(O)c2cc(NC(=O)c3ccc(OC)cc3)ccc21 (centres unmarked) [Table 9: —CH2CCMe; 4-MeOPh; CMeOH, N-(5-(But-2-yn-1-yl)-11-hydroxy-11-methyl-6-oxo-6,11-dihydro-5H-dibenzo[b,e]azepin-2-yl)-4-methoxybenzamide] |

Same assay, conditions: Table 1; HCT116, 72 hours; read-out: Activity

| IC50 | Structure (SMILES) |
| --- | --- |
| < 500 nM | CC#CCN1C(=O)c2ccc(Cl)cc2Sc2cc(NC(=O)N3CCCCC3)ccc21 |
| < 500 nM | CC#CCN1C(=O)c2ccccc2Sc2cc(NC(=O)N3CCC3)cnc21 [Table 1: —CH2CCMe; azetidin-1-yl; CH; N] |

Same assay, conditions: Table 2; HCT116, 72 hours; read-out: Activity

| IC50 | Structure (SMILES) |
| --- | --- |
| < 500 nM | CC#CCN1C(=O)c2ccccc2Sc2cc(NC(=S)N3CCC3)ccc21 [Table 2: —CH2CCMe; azetidin-1-yl; CH; CH] |

Same assay, conditions: Table 3; HCT116, 72 hours; read-out: Activity

| IC50 | Structure (SMILES) |
| --- | --- |
| < 500 nM | CC#CCN1C(=O)c2ccccc2Sc2cc(NC(=O)Nc3ccc4oc(=O)n(C)c4c3)cnc21 |

Same assay, conditions: Table 5; HCT116, 72 hours; read-out: Activity

| IC50 | Structure (SMILES) |
| --- | --- |
| < 500 nM | Cc1cnc(Nc2ccc3c(c2)Sc2ccccc2C(=O)N3CC#CCl)c(C)c1 |
| < 500 nM | C#CCN1C(=O)c2ccccc2Sc2cc(Nc3ncc(C)cc3C)ccc21 |
| < 500 nM | CC#CCN1C(=O)c2ccccc2Sc2cc(Nc3ncccc3C#N)cnc21 |
| < 500 nM | CC=CCN1C(=O)c2ccccc2Sc2cc(Nc3nccnc3C)ccc21 |
| < 500 nM | C#CCN1C(=O)c2ccccc2Sc2cc(Nc3ncc(C)nc3C)ccc21 |
| 1000 to 5000 nM | CC#CCN1C(=O)c2ccccc2Sc2cc(Nc3ncccc3C(=O)OC)ccc21 [Methyl 2-((10-(but-2-yn-1-yl)-11-oxo-10,11-dihydrodibenzo[b,f][1,4]thiazepin-7-yl)amino) nicotinate] |

Same assay, conditions: Table 6; HCT116, 72 hours; read-out: Activity

| IC50 | Structure (SMILES) |
| --- | --- |
| < 500 nM | CC#CCN1C(=O)c2ccccc2Sc2cc(NCC3(C)COC3)cnc21 |
| < 500 nM | O=C1c2ccccc2Sc2cc(NC3COC3)cnc2N1CC#CCl [Table 6: —CH2CCCl; oxetan-3-yl; CH/N; S] |
| < 500 nM | CC#CCN1C(=O)c2ccccc2Sc2cc(NC3CC4(COC4)C3)cnc21 |
| < 500 nM | CC#CCN1C(=O)c2ccccc2Sc2cc(NC34CC(OC)(C3)C4)ccc21 |

| Structure (SMILES) | IC50 |
| --- | --- |
| CC#CCN1C(=O)c2ccccc2Cc2cc(NC3CCCOC3)ccc21 (centres unmarked) | < 500 nM |

Same assay, conditions: Table 7; cell viability assay, CellTiter-Glo, 72 hours; scaffold drawing 42 with R^2, R^3, X/Y, Z; read-out: Activity

| IC50 | Structure (SMILES) |
| --- | --- |
| 1000 to 5000 nM | CCCOc1ccc(C(=O)Nc2ccc3c(c2)Sc2ccccc2C(=O)N3CCOC)cc1 [—(CH2)2OMe; 4-PrOPh; CH/CH; S] |
| 1000 to 5000 nM | COCCN1C(=O)c2ccccc2Sc2cc(NC(=O)c3ncccn3)ccc21 [—(CH2)2OMe; pyrimidin-2-yl; CH/CH; S] |
| < 500 nM | CCCOCCN1C(=O)c2ccccc2Sc2cc(NC(=O)c3ccc(OC)cc3)ccc21 [—(CH2)2OPr; 4-MeOPh; CH/CH; S] |
| 500 to 1000 nM | COCCN1C(=O)c2ccccc2Sc2cc(NC(=O)c3cccc(C(=O)N(C)C)c3)ccc21 [—(CH2)2OMe; 3-Me2NC(O)Ph; CH/CH; S] |
| 1000 to 5000 nM | COCCN1C(=O)c2ccccc2Sc2cc(NC(=O)c3ccno3)ccc21 [—(CH2)2OMe; isoxazol-5-yl; CH/CH; S] |

Same assay, conditions: Table 8; analogs of scaffold drawing 43 defined by R^2, R^3, X/Y, W; read-out: Activity (IC50 class, cell viability assay)

| Structure (SMILES) | IC50 |
| --- | --- |
| CC#CCN1C(=O)c2ccccc2Sc2cc(NC(=O)C34CC(OC)(C3)C4)cnc21 | < 500 nM |
| CC#CCN1C(=O)c2cc(F)ccc2Sc2cc(NC(=O)C34CC(O)(C3)C4)cnc21 | < 500 nM |
| C#CCN1C(=O)c2ccc(Cl)cc2Sc2cc(NC(=O)C3CC4(CC(=NOC)C4)C3)ccc21 (centres unmarked) | < 500 nM |
| CC#CCN1C(=O)c2ccc(Cl)cc2Sc2cc(NC(=O)C34CC(OC)(C3)C4)cnc21 | < 500 nM |
| CC#CCN1C(=O)c2ccc(Cl)cc2Sc2cc(NC(=O)C3CC4(CC(=NO)C4)C3)ccc21 (centres unmarked) | < 500 nM |
| COC12CC(C(=O)Nc3cnc4c(c3)Sc3ccccc3C(=O)N4CC#CCF)(C1)C2 | < 500 nM |
| CC#CCN1C(=O)c2ccc(Cl)cc2Sc2cc(NC(=O)C3CC4(COC4)C3)cnc21 | < 500 nM |
| CC#CCN1C(=O)c2ccccc2Sc2cc(NC(=O)C3CC4(CC(=O)C4)C3)cnc21 | < 500 nM |

Second part, the molecule after the results:

| IC50 | Structure (SMILES) |
| --- | --- |
| < 500 nM | O=C(Nc1cnc2c(c1)Sc1ccccc1C(=O)N2CC#CC1CC1)[C@@H]1C[C@H]1CO (relative stereo) [—CH2CC^cPr; trans-2-HOCH2-cPr; CH/CH; N] |
| < 500 nM | COCC1CC(C(=O)Nc2cnc3c(c2)Sc2cc(Cl)ccc2C(=O)N3CC#CCl)C1 (centres unmarked) [—CH2CCCl; 3-MeOCH2-cBu; CCI/CH; N] |
| < 500 nM | CC#CCN1C(=O)c2ccccc2Sc2cc(NC(=O)CC3COC3)cnc21 [—CH2CCMe; (oxetan-3-yl)CH2; CH/CH; N] |
| < 500 nM | CC#CCN1C(=O)c2ccccc2Sc2cc(NC(=O)c3cccc(OC)c3)ccc21 [—CH2CCMe; 3-MeOPh; CH/CH; CH] |
| < 500 nM | COc1ccc(C(=O)Nc2ccc3c(c2)Sc2ccccc2C(=O)N3CC#CC(F)(F)F)cc1 [—CH2CCCF3; 4-MeOPh; CH/CH; CH] |
| < 500 nM | CC#CCN1C(=O)c2ccccc2Sc2cc(NC(=O)C#CC)ccc21 [—CH2CCMe; CCMe; CH/CH; CH] |
| < 500 nM | CC#CCN1C(=O)c2ccccc2Sc2cc(NC(=O)CC3COC3)ccc21 [—CH2CCMe; (oxetan-3-yl)CH2; CH/CH; CH] |
| < 500 nM | CC#CCN1C(=O)c2ccccc2Sc2cc(NC(=O)c3ccc(OC)nc3)ccc21 [—CH2CCMe; 6-MeO-pyrid-3-yl; CH/CH; CH] |
| < 500 nM | CC#CCN1C(=O)c2ccc(Cl)cc2Sc2cc(NC(=O)CC3COC3)cnc21 [—CH2CCMe; (oxetan-3-yl)CH2; CCl/CH; N] |
| < 500 nM | COCC=CC(=O)Nc1cnc2c(c1)Sc1ccccc1C(=O)N2CC#CC(F)(F)F [—CH2CCCF3; CH═CHCH2OMe; CH/CH; N] |
| < 500 nM | CC#CCN1C(=O)c2ccc(Cl)cc2Sc2cc(NC(=O)C3CC3CO)cnc21 (racemic) [—CH2CCMe; trans-2-HOCH2-cPr; CCI/CH; N] |
| < 500 nM | CC#CCN1C(=O)c2ccc(Cl)cc2Sc2cc(NC(=O)C3COC3)ccc21 [—CH2CCMe; oxetan-3-yl; CCl/CH; CH] |
| < 500 nM | COC(=O)[C@@H]1C[C@H]1C(=O)Nc1cnc2c(c1)Sc1ccccc1C(=O)N2CC#CC1CC1 (relative stereo) [—CH2CC^cPr; trans-2-MeO2C-cPr; CH/CH; N] |
| < 500 nM | O=C(Nc1ccc2c(c1)Sc1cc(Cl)ccc1C(=O)N2CC#CCl)C1CC1CO (racemic) [—CH2CCCl; trans-2-HOCH2-cPr; CCl/CH; CH] |
| < 500 nM | CC#CCN1C(=O)c2ccccc2Sc2cc(NC(=O)c3ccc(OC(F)(F)F)cc3)ccc21 [—CH2CCMe; 4-CF3OPh; CH/CH; CH] |

Same assay, conditions: Table 9; HCT116, 72 hours; read-out: Activity

| IC50 | Structure (SMILES) |
| --- | --- |
| < 500 nM | CC#CCN1C(=O)c2ccccc2C(C#N)c2cc(NC(=O)C34CC(OC)(C3)C4)ccc21 (centres unmarked) |
| < 500 nM | COc1ccc(C(=O)Nc2ccc3c(c2)C(C)(O)c2ccccc2C(=O)N3CC#CCl)cn1 (centres unmarked) |
| < 500 nM | CC#CCN1C(=O)c2ccccc2C(C)c2cc(NC(=O)CCCOC)ccc21 (centres unmarked) [Table 9: —CH2CCMe; (CH2)3OMe; CHMe] |
| < 500 nM | CC#CCN1C(=O)c2ccccc2C(C)c2cc(NC(=O)NCCOC)ccc21 (centres unmarked) [Table 9: —CH2CCMe; NH(CH2)2OMe; CHMe] |
| < 500 nM | CC#CCN1C(=O)c2ccccc2C(C)(O)c2cc(NC(=O)[C@H]3C[C@H](OC)C3)ccc21 (stereo partly drawn) [Table 9: —CH2CCMe; trans-3-MeOcBu; CMeOH] |

Source: US20260097047A1, “Small molecule inhibitors of the ribosome biogenesis factor NVL2” (Board of Regents, The University of Texas System, priority 2023, published 2026)
